Reference: patent US7868013B2, “Cycloalkyl substituted pyrimidinediamine compounds and their uses” (Rigel Pharmaceuticals, Inc., priority 2004, dated 2011)
Structures can show the parent of a compound that is named as a salt. Where two headings read alike, the source gives them in different places.

Assays:
[1] = system: H1299 (non-small cell lung carcinoma); test: In vitro antiproliferation assay, H1299 cells (TABLE 1 6 point assay; TABLE 2); format: cell-based
Procedure: (§1) Certain compounds were tested against other cell types for their ability to inhibit proliferation in standard antiproliferation assays.

[2] = system: A549 (lung carcinoma); test: In vitro antiproliferation assay, A549 cells (TABLE 1 6 point assay; TABLE 2); format: cell-based
Procedure: as §1

[3] = Homo sapiens, NCI-H1299, 6 point assay, H1299 cells, read-out: IC50, H1299 cells
[4] = Homo sapiens, A549, 6 point assay, A549 cells, read-out: IC50, A549 cells
[5] = Homo sapiens, NCI-H1299, H1299 cells, 6 point assay, read-out: H1299, 6pt (IC50, inhibition of proliferation)
[6] = Homo sapiens, A549, A549 cells, 6 point assay, read-out: A549, 6pt (IC50, inhibition of proliferation)

CN1CCC(c2cccc(Nc3ncc(F)c(NC4C5C=CC(C5)C4C(N)=O)n3)c2)CC1 (racemic) [compound 268, Racemic-(2-exo,3-exo)-N4-(3-aminocarbonylbicyclo[2.2.1]hept-5-en-2-yl)-5-fluoro-N2-[3-(1-methylpiperidin-4-yl)phenyl]-2,4-pyrimidinediamine]
IC50 [1, 3]: ≤ 0.1 µM
IC50 [2, 4]: ≤ 0.1 µM

Cc1cc(Nc2ncc(F)c(NC3C4C=CC(C4)C3C(N)=O)n2)cc(C)c1N1CCN(C)CC1 (racemic) [compound 271, Racemic-(2-exo,3-exo)-N4-(3-aminocarbonylbicyclo[2.2.1]hept-5-en-2-yl)-N2-[3,5-dimethyl-4-(4-methylpiperazin-1-yl)phenyl]-5-fluoro-2,4-pyrimidinediamine]
IC50 [1, 3]: 1 to 10 µM
IC50 [2, 4]: 1 to 10 µM

Cc1cc(Nc2ncc(F)c(NC3C4C=CC(C4)C3C(N)=O)n2)ccc1O (racemic) [compound 277, Racemic-(2-exo,3-exo)-N4-(3-aminocarbonylbicyclo[2.2.1]hept-5-en-2-yl)-5-fluoro-N2-(4-hydroxy-3-methylphenyl)-2,4-pyrimidinediamine Bis- Hydrochloride Salt]
IC50 ([1]; 6 point assay, H1299 cells, read-out: IC50, H1299 cells): ≤ 0.1 µM
IC50 ([2]; 6 point assay, A549 cells, read-out: IC50, A549 cells): ≤ 0.1 µM

CN1CCN(C(=O)CCCc2ccc(Nc3ncc(F)c(N[C@H]4CCC[C@H]4C(N)=O)n3)cc2)CC1 (racemic) [compound 278, Racemic-cis-N4-(2-aminocarbonylcyclopent-1-yl)-5-fluoro-N2-{4-[(4-methylpiperazin-1-yl)-butan-1-one-4-yl]phenyl}-2,4-pyrimidinediamine]
IC50 [1, 3]: 1 to 10 µM
IC50 [2, 4]: 1 to 10 µM

CN1CCN(C(=O)Cc2ccc(Nc3ncc(F)c(N[C@H]4CCC[C@H]4C(N)=O)n3)cc2)CC1 (racemic) [compound 279, Racemic-cis-N4-(2-aminocarbonylcyclopent-1-yl)-5-fluoro-N2-{4-[(4-methylpiperazin-1-yl)-ethan-1-one-2-yl]phenyl}-2,4-pyrimidinediamine]
IC50 [1, 3]: 1 to 10 µM
IC50 [2, 4]: 1 to 10 µM

CN1CCN(C(=O)CCc2ccc(Nc3ncc(F)c(N[C@H]4CCC[C@H]4C(N)=O)n3)cc2)CC1 (racemic) [compound 280, Racemic-cis-N4-(2-aminocarbonylcyclopent-1-yl)-5-fluoro-N2-{4-[(4-methylpiperazin-1-yl)-propan-1-one-3-yl]}phenyl-2,4-pyrimidinediamine]
IC50 [1, 3]: 1 to 10 µM
IC50 [2, 4]: 1 to 10 µM

CN1CCN(C(=O)c2ccc(Nc3ncc(F)c(N[C@H]4CCC[C@H]4C(N)=O)n3)cc2)CC1 (racemic) [compound 281, Racemic-cis-N4-(2-aminocarbonylcyclopent-1-yl)-5-fluoro-N2-[4-(4-methylpiperaino-1-yl-carbonyl)phenyl]-2,4-pyrimidinediamine]
IC50 [1, 3]: 1 to 10 µM
IC50 [2, 4]: 1 to 10 µM

Cc1cc(Nc2ncc(F)c(N[C@H]3CCC[C@H]3C(N)=O)n2)ccc1N1CC2CC1CN2C (mixture of isomers) [compound 282, Racemic-cis-N4-(2-aminocarbonylcyclopent-1-yl)-5-fluoro-N2-[3-methyl-4-(5-methyl-(1S,4S)-2,5-diazabicyclo[2.2.1]heptan-2-yl)phenyl]-2,4-pyrimidinediamine]
IC50 [1, 3]: 0.1 to 1 µM
IC50 [2, 4]: 0.1 to 1 µM

Cc1cc(Nc2ncc(F)c(N[C@H]3CCC[C@H]3C(N)=O)n2)ccc1N1CC(C)OC(C)C1 (mixture of isomers) [compound 283, Racemic-cis-N4-(2-aminocarbonylcyclopent-1-yl)-N2-[4-(2,6-dimethylmorpholino)-3-methyl]phenyl-5-fluoro-2,4-pyrimidinediamine]
IC50 [1, 3]: 0.1 to 1 µM
IC50 [2, 4]: 0.1 to 1 µM

Cc1cc(Nc2ncc(F)c(N[C@@H]3CCC[C@H]3C(N)=O)n2)ccc1N1CCN(C)CC1 [15c, (1R,2R)—N4-(2-Aminocarbonylcyclopent-1-yl)-5-fluoro-N2-[4-(4-methylpiperazin-1-yl)-3-methylphenyl]-2,4-pyrimidinediamine]
IC50 [1, 3]: 1 to 10 µM
IC50 [2, 4]: 1 to 10 µM

Cc1cc(Nc2ncc(F)c(N[C@H]3CCC[C@@H]3C(N)=O)n2)ccc1N1CCN(C)CC1 [15d, (1S,2S)—N4-(2-Aminocarbonylcyclopent-1-yl)-5-fluoro-N2-[4-(4-methylpiperazin-1-yl)-3-methylphenyl]-2,4-pyrimidinediamine]
IC50 [1, 3]: > 10 µM
IC50 [2, 4]: > 10 µM

Cc1cc(Nc2ncc(F)c(N[C@H]3[C@@H](C(=O)NC(C)c4ccccc4)[C@@H]4C=C[C@H]3C4)n2)ccc1N1CCN(C)CC1 (stereo partly drawn) [compound 109, (1R,2R,3S,4S)-N4-5-Fluoro-N4-(3-(R)-alpha-methylbenzylaminocarbonylbicyclo[2.2.1]hept-5-en-2-yl)-N2-[3-methyl-4-(4-methylpiperazin-1-yl)phenyl]-2,4-pyrimidinediamine]
IC50 [1, 5]: 0.1 to 1 µM
IC50 [2, 6]: 0.1 to 1 µM

Cc1cc(Nc2ncc(F)c(N[C@@H]3[C@H](C(=O)NC(C)c4ccccc4)[C@H]4C=C[C@@H]3C4)n2)ccc1N1CCN(C)CC1 (stereo partly drawn) [compound 110, (1S,2S,3R,4R)-N4-5-Fluoro-N4-(3-(R)-alpha-methylbenzylaminocarbonylbicyclo[2.2.1]hept-5-en-2-yl)-N2-[3-methyl-4-(4-methylpiperazin-1-yl)phenyl]-2,4-pyrimidinediamine]
IC50 [1, 5]: 0.1 to 1 µM
IC50 [2, 6]: 0.1 to 1 µM

Cc1ccc(Nc2ncc(F)c(N[C@H]3[C@@H](C(N)=O)[C@@H]4C=C[C@H]3C4)n2)cc1OCCN1CCOCC1 [compound 115, (1R,2R,3S,4S)-N4-(3-Aminocarbonylbicyclo[2.2.1]hept-5-en-2-yl)-5-fluoro-N2-[4-methyl-3-(2-morpholinoethyloxy)phenyl]-2,4-pyrimidinediamine]
IC50 [1, 5]: ≤ 0.1 µM
IC50 [2, 6]: ≤ 0.1 µM

Cc1cc(Nc2ncc(F)c(N[C@H]3[C@@H](C(N)=O)[C@@H]4C=C[C@H]3C4)n2)ccc1N1CCN(CCO)CC1 [compound 116, (1R,2R,3S,4S)-N4-(3-Aminocarbonylbicyclo[2.2.1]hept-5-en-2-yl)-5-fluoro-N2-{4-[4-(2-hydroxyethyl)piperazin-1-yl]-3-methylphenyl}-2,4-pyrimidinediamine]
IC50 [1, 5]: ≤ 0.1 µM
IC50 [2, 6]: ≤ 0.1 µM

Cc1cc(Nc2ncc(F)c(N[C@H]3[C@@H](C(N)=O)[C@@H]4C=C[C@H]3C4)n2)ccc1N1CCN(C)CC1 [compound 121, (1R,2R,3S,4S)-N4-(3-Aminocarbonylbicyclo[2.2.1]hept-5-ene-2-yl)-5-fluoro-N2-[3-methyl-4-(4-methylpiperazin-1-yl)phenyl]-2,4-pyrimidinediamine Adipic Acid Salt]
IC50 [1, 5]: ≤ 0.1 µM
IC50 [2, 6]: ≤ 0.1 µM

Cc1cc(Nc2ncc(F)c(N[C@H]3[C@@H](C(N)=O)[C@@H]4C=C[C@H]3C4)n2)ccc1N1CCN(C)CC1 [compound 122, (1R,2R,3S,4S)-N4-(3-Aminocarbonylbicyclo[2.2.1]hept-5-en-2-yl)-5-fluoro-N2-[3-methyl-4-(4-methylpiperazin-1-yl)phenyl]-2,4-pyrimidinediamine Tartaric Acid Salt]
IC50 [1, 5]: ≤ 0.1 µM
IC50 [2, 6]: ≤ 0.1 µM

Cc1cc(Nc2ncc(F)c(N[C@H]3[C@@H](C(N)=O)[C@@H]4C=C[C@H]3C4)n2)ccc1N(C1CC1)C1CCN(C)CC1 [compound 123, (1R,2R,3S,4S)-N4-(3-Aminocarbonylbicyclo[2.2.1]hept-5-en-2-yl)-5-fluoro-N2-{4-[N-cyclopropyl-(1-methylpiperidin-4-yl)]-3-methylphenyl}-2,4-pyrimidinediamine]
IC50 [1, 5]: ≤ 0.1 µM
IC50 [2, 6]: ≤ 0.1 µM

COc1ccc(C(C)NC(=O)[C@H]2[C@@H](Nc3nc(Nc4ccc(N5CCN(C)CC5)c(C)c4)ncc3F)[C@@H]3C=C[C@H]2C3)cc1 (stereo partly drawn) [compound 124, (1S,2S,3R,4R)-5-Fluoro-N4-(3-(R)-4-methoxy-alpha-methylbenzylaminocarbonylbicyclo[2.2.1]hept-5-en-2-yl]-N2-(3-methyl-4-(4-methylpiperazin-1-yl)phenyl]-2,4-pyrimidinediamine]
IC50 [1, 5]: 0.1 to 1 µM
IC50 [2, 6]: 0.1 to 1 µM

Cc1ccc(Nc2ncc(F)c(N[C@H]3[C@@H](C(N)=O)[C@@H]4C=C[C@H]3C4)n2)cc1OCC(=O)N1CCOCC1 [compound 125, (1R,2R,3S,4S)-N4-(3-Aminocarbonylbicyclo[2.2.1]hept-5-en-2-yl)-5-fluoro-N2-[4-methyl-3-(morpholin-4-ylcarbonylmethyleneoxy)phenyl]-2,4-pyrimidinediamine]
IC50 [1, 5]: ≤ 0.1 µM
IC50 [2, 6]: ≤ 0.1 µM

CN1CCC(c2ccc(Nc3ncc(F)c(N[C@H]4[C@@H](C(N)=O)[C@@H]5C=C[C@H]4C5)n3)cc2)CC1 [compound 137, (1R,2R,3S,4S)-N4-(3-aminocarbonylbicyclo[2.2.1]hept-5-en-2-yl)-5-fluoro-N2-[4-(1-methylpiperidin-4-yl)phenyl]-2,4-pyrimidinediamine]
IC50 [1, 5]: ≤ 0.1 µM
IC50 [2, 6]: ≤ 0.1 µM

CN1CCC(c2cccc(Nc3ncc(F)c(N[C@H]4[C@@H](C(N)=O)[C@@H]5C=C[C@H]4C5)n3)c2)CC1 [compound 145, (1R,2R,3S,4S)-N4-(3-Aminocarbonylbicyclo[2.2.1]hept-5-en-2-yl)-5-fluoro-N2-[3-(1-methylpiperidin-4-yl)phenyl]-2,4-pyrimidinediamine Mono- Hydrochloric Acid Salt]
IC50 [1, 5]: ≤ 0.1 µM
IC50 [2, 6]: ≤ 0.1 µM

CN1CCC(Oc2ccc(Nc3ncc(F)c(N[C@H]4[C@@H](C(N)=O)[C@@H]5C=C[C@H]4C5)n3)cc2)CC1 [compound 146, (1R,2R,3S,4S)-N4-(3-Aminocarbonylbicyclo[2.2.1]hept-5-en-2-yl)-5-fluoro-N2-[4-(1-methylpiperidin-4-yloxy)phenyl]-2,4-pyrimidinediamine]
IC50 [1, 5]: ≤ 0.1 µM
IC50 [2, 6]: ≤ 0.1 µM
